{"source": "the supplement of paper PMC10307832", "test_in_all_cases": "relative viability (nuclei count vs DMSO), 5 days (fraction); higher = more cells survive", "key": {"[1]": {"tested_on": "PC-3 [JPC-3]", "method_in_brief": "(§1)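 A single step with final 0.05% Triton X-100, 1% formaldehyde and 1 ug/ml Hoechst fixed the cells and stained nuclei 5 days after treatment. Lung cancer cell lines in 1536-well plates had been treated by pin tool the day after seeding with one drug alone or a fixed anchor-drug dose plus five library-drug doses (not always all listed) in √10 steps, and nuclei were counted on 4× images. Relative viability is the ratio of nuclei in treated wells to nuclei in vehicle wells, taken as the median of duplicate plates.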"}, "[2]": {"tested_on": "NCI-H520", "method_in_brief": "as §1"}, "[3]": {"tested_on": "NCI-H1755", "method_in_brief": "as §1"}, "[4]": {"tested_on": "LK-2", "method_in_brief": "as §1"}, "[5]": {"tested_on": "NCI-H1355", "method_in_brief": "as §1"}, "[6]": {"tested_on": "NCI-H2228", "method_in_brief": "as §1"}, "[7]": {"tested_on": "NCI-H322M", "method_in_brief": "as §1"}, "[8]": {"tested_on": "NCI-H1975", "method_in_brief": "as §1"}, "[9]": {"tested_on": "NCI-H661", "method_in_brief": "as §1"}, "[10]": {"tested_on": "LCLC-97TM1", "method_in_brief": "as §1"}, "[11]": {"tested_on": "HCC-15", "method_in_brief": "as §1"}, "[12]": {"tested_on": "EKVX", "method_in_brief": "as §1"}, "[13]": {"tested_on": "NCI-H2405", "method_in_brief": "as §1"}, "[14]": {"tested_on": "RERF-LC-KJ", "method_in_brief": "as §1"}, "[15]": {"tested_on": "HCC-827", "method_in_brief": "as §1"}, "[16]": {"tested_on": "NCI-H1734", "method_in_brief": "as §1"}, "[17]": {"tested_on": "PC-14", "method_in_brief": "as §1"}, "[18]": {"tested_on": "NCI-H1563", "method_in_brief": "as §1"}, "[19]": {"tested_on": "H3255", "method_in_brief": "as §1"}, "[20]": {"tested_on": "CAL-12T", "method_in_brief": "as §1"}, "[21]": {"tested_on": "NCI-H2342", "method_in_brief": "as §1"}, "[22]": {"tested_on": "NCI-H1650", "method_in_brief": "as §1"}}}
{"smiles": "Cc1sc2c(c1C)C(c1ccc(Cl)cc1)=N[C@@H](CC(=O)OC(C)(C)C)c1nnc(C)n1-2", "note": "[JQ1] + Nc1nc2[nH]cc(CCc3ccc(C(=O)N[C@@H](CCC(=O)O)C(=O)O)cc3)c2c(=O)[nH]1 [Pemetrexed] (partner 0.2 µM)", "values": [{"measurement": "relative viability", "setting": "[1]; first compound 0.04 µM", "value": 1.16}, {"measurement": "relative viability", "setting": "[1]; first compound 0.1265 µM", "value": 1.12}, {"measurement": "relative viability", "setting": "[1]; first compound 0.4 µM", "value": 0.818}, {"measurement": "relative viability", "setting": "[1]; first compound 1.265 µM", "value": 0.751}, {"measurement": "relative viability", "setting": "[1]; first compound 4 µM", "value": 0.374}, {"measurement": "relative viability", "setting": "[2]; first compound 0.04 µM", "value": 0.565}, {"measurement": "relative viability", "setting": "[2]; first compound 0.1265 µM", "value": 0.536}, {"measurement": "relative viability", "setting": "[2]; first compound 0.4 µM", "value": 0.491}, {"measurement": "relative viability", "setting": "[2]; first compound 1.265 µM", "value": 0.307}, {"measurement": "relative viability", "setting": "[2]; first compound 4 µM", "value": 0.195}, {"measurement": "relative viability", "setting": "[3]; first compound 0.04 µM", "value": 0.444}, {"measurement": "relative viability", "setting": "[3]; first compound 0.1265 µM", "value": 0.444}, {"measurement": "relative viability", "setting": "[3]; first compound 0.4 µM", "value": 0.387}, {"measurement": "relative viability", "setting": "[3]; first compound 1.265 µM", "value": 0.323}, {"measurement": "relative viability", "setting": "[3]; first compound 4 µM", "value": 0.324}, {"measurement": "relative viability", "setting": "[4]; first compound 0.04 µM", "value": 0.282}, {"measurement": "relative viability", "setting": "[4]; first compound 0.1265 µM", "value": 0.29}, {"measurement": "relative viability", "setting": "[4]; first compound 0.4 µM", "value": 0.234}, {"measurement": "relative viability", "setting": "[4]; first compound 1.265 µM", "value": 0.16}, {"measurement": "relative viability", "setting": "[4]; first compound 4 µM", "value": 0.158}, {"measurement": "relative viability", "setting": "[5]; first compound 0.04 µM", "value": 1.05}, {"measurement": "relative viability", "setting": "[5]; first compound 0.1265 µM", "value": 1.04}, {"measurement": "relative viability", "setting": "[5]; first compound 0.4 µM", "value": 1.07}, {"measurement": "relative viability", "setting": "[5]; first compound 1.265 µM", "value": 0.893}, {"measurement": "relative viability", "setting": "[5]; first compound 4 µM", "value": 0.718}, {"measurement": "relative viability", "setting": "[6]; first compound 0.04 µM", "value": 0.362}, {"measurement": "relative viability", "setting": "[6]; first compound 0.1265 µM", "value": 0.314}, {"measurement": "relative viability", "setting": "[6]; first compound 0.4 µM", "value": 0.358}, {"measurement": "relative viability", "setting": "[6]; first compound 1.265 µM", "value": 0.312}, {"measurement": "relative viability", "setting": "[6]; first compound 4 µM", "value": 0.184}, {"measurement": "relative viability", "setting": "[7]; first compound 0.04 µM", "value": 0.625}, {"measurement": "relative viability", "setting": "[7]; first compound 0.1265 µM", "value": 0.648}, {"measurement": "relative viability", "setting": "[7]; first compound 0.4 µM", "value": 0.515}, {"measurement": "relative viability", "setting": "[7]; first compound 1.265 µM", "value": 0.495}, {"measurement": "relative viability", "setting": "[7]; first compound 4 µM", "value": 0.381}, {"measurement": "relative viability", "setting": "[8]; first compound 0.04 µM", "value": 0.284}, {"measurement": "relative viability", "setting": "[8]; first compound 0.1265 µM", "value": 0.233}, {"measurement": "relative viability", "setting": "[8]; first compound 0.4 µM", "value": 0.234}, {"measurement": "relative viability", "setting": "[8]; first compound 1.265 µM", "value": 0.19}, {"measurement": "relative viability", "setting": "[8]; first compound 4 µM", "value": 0.173}, {"measurement": "relative viability", "setting": "[9]; first compound 0.04 µM", "value": 0.914}, {"measurement": "relative viability", "setting": "[9]; first compound 0.1265 µM", "value": 0.876}, {"measurement": "relative viability", "setting": "[9]; first compound 0.4 µM", "value": 0.916}, {"measurement": "relative viability", "setting": "[9]; first compound 1.265 µM", "value": 0.482}, {"measurement": "relative viability", "setting": "[9]; first compound 4 µM", "value": 0.423}, {"measurement": "relative viability", "setting": "[10]; first compound 0.04 µM", "value": 0.168}, {"measurement": "relative viability", "setting": "[10]; first compound 0.1265 µM", "value": 0.199}, {"measurement": "relative viability", "setting": "[10]; first compound 0.4 µM", "value": 0.172}, {"measurement": "relative viability", "setting": "[10]; first compound 1.265 µM", "value": 0.141}, {"measurement": "relative viability", "setting": "[10]; first compound 4 µM", "value": 0.0882}, {"measurement": "relative viability", "setting": "[11]; first compound 0.04 µM", "value": 0.238}, {"measurement": "relative viability", "setting": "[11]; first compound 0.1265 µM", "value": 0.224}, {"measurement": "relative viability", "setting": "[11]; first compound 0.4 µM", "value": 0.19}, {"measurement": "relative viability", "setting": "[11]; first compound 1.265 µM", "value": 0.182}, {"measurement": "relative viability", "setting": "[11]; first compound 4 µM", "value": 0.199}, {"measurement": "relative viability", "setting": "[12]; first compound 0.04 µM", "value": 0.351}, {"measurement": "relative viability", "setting": "[12]; first compound 0.1265 µM", "value": 0.396}, {"measurement": "relative viability", "setting": "[12]; first compound 0.4 µM", "value": 0.304}, {"measurement": "relative viability", "setting": "[12]; first compound 1.265 µM", "value": 0.362}, {"measurement": "relative viability", "setting": "[12]; first compound 4 µM", "value": 0.264}, {"measurement": "relative viability", "setting": "[13]; first compound 0.04 µM", "value": 1.08}, {"measurement": "relative viability", "setting": "[13]; first compound 0.4 µM", "value": 0.899}, {"measurement": "relative viability", "setting": "[13]; first compound 1.265 µM", "value": 0.72}, {"measurement": "relative viability", "setting": "[13]; first compound 4 µM", "value": 0.321}, {"measurement": "relative viability", "setting": "[14]; first compound 0.04 µM", "value": 0.487}, {"measurement": "relative viability", "setting": "[14]; first compound 0.1265 µM", "value": 0.481}, {"measurement": "relative viability", "setting": "[14]; first compound 0.4 µM", "value": 0.46}, {"measurement": "relative viability", "setting": "[14]; first compound 1.265 µM", "value": 0.33}, {"measurement": "relative viability", "setting": "[14]; first compound 4 µM", "value": 0.275}, {"measurement": "relative viability", "setting": "[15]; first compound 0.04 µM", "value": 0.262}, {"measurement": "relative viability", "setting": "[15]; first compound 0.1265 µM", "value": 0.255}, {"measurement": "relative viability", "setting": "[15]; first compound 1.265 µM", "value": 0.211}, {"measurement": "relative viability", "setting": "[15]; first compound 4 µM", "value": 0.247}, {"measurement": "relative viability", "setting": "[16]; first compound 0.04 µM", "value": 0.358}, {"measurement": "relative viability", "setting": "[16]; first compound 0.1265 µM", "value": 0.347}, {"measurement": "relative viability", "setting": "[16]; first compound 0.4 µM", "value": 0.327}, {"measurement": "relative viability", "setting": "[16]; first compound 1.265 µM", "value": 0.342}, {"measurement": "relative viability", "setting": "[16]; first compound 4 µM", "value": 0.283}, {"measurement": "relative viability", "setting": "[17]; first compound 0.04 µM", "value": 0.12}, {"measurement": "relative viability", "setting": "[17]; first compound 0.1265 µM", "value": 0.148}, {"measurement": "relative viability", "setting": "[17]; first compound 0.4 µM", "value": 0.105}, {"measurement": "relative viability", "setting": "[17]; first compound 1.265 µM", "value": 0.136}, {"measurement": "relative viability", "setting": "[17]; first compound 4 µM", "value": 0.133}, {"measurement": "relative viability", "setting": "[18]; first compound 0.04 µM", "value": 0.698}, {"measurement": "relative viability", "setting": "[18]; first compound 0.1265 µM", "value": 0.715}, {"measurement": "relative viability", "setting": "[18]; first compound 0.4 µM", "value": 0.673}, {"measurement": "relative viability", "setting": "[18]; first compound 1.265 µM", "value": 0.47}, {"measurement": "relative viability", "setting": "[18]; first compound 4 µM", "value": 0.491}, {"measurement": "relative viability", "setting": "[19]; first compound 0.04 µM", "value": 0.569}, {"measurement": "relative viability", "setting": "[19]; first compound 0.1265 µM", "value": 0.515}, {"measurement": "relative viability", "setting": "[19]; first compound 0.4 µM", "value": 0.453}, {"measurement": "relative viability", "setting": "[19]; first compound 1.265 µM", "value": 0.364}, {"measurement": "relative viability", "setting": "[19]; first compound 4 µM", "value": 0.3}, {"measurement": "relative viability", "setting": "[20]; first compound 0.04 µM", "value": 1.22}, {"measurement": "relative viability", "setting": "[20]; first compound 0.1265 µM", "value": 1.18}, {"measurement": "relative viability", "setting": "[20]; first compound 0.4 µM", "value": 1.08}, {"measurement": "relative viability", "setting": "[20]; first compound 1.265 µM", "value": 0.465}, {"measurement": "relative viability", "setting": "[20]; first compound 4 µM", "value": 0.249}, {"measurement": "relative viability", "setting": "[21]; first compound 0.04 µM", "value": 0.805}, {"measurement": "relative viability", "setting": "[21]; first compound 0.1265 µM", "value": 0.73}, {"measurement": "relative viability", "setting": "[21]; first compound 0.4 µM", "value": 0.852}, {"measurement": "relative viability", "setting": "[21]; first compound 1.265 µM", "value": 0.781}, {"measurement": "relative viability", "setting": "[21]; first compound 4 µM", "value": 0.617}, {"measurement": "relative viability", "setting": "[22]; first compound 0.04 µM", "value": 0.365}, {"measurement": "relative viability", "setting": "[22]; first compound 0.1265 µM", "value": 0.293}, {"measurement": "relative viability", "setting": "[22]; first compound 0.4 µM", "value": 0.335}, {"measurement": "relative viability", "setting": "[22]; first compound 1.265 µM", "value": 0.202}, {"measurement": "relative viability", "setting": "[22]; first compound 4 µM", "value": 0.183}]}
